Experimental data: patent publication US12134620B2 (ARAXES PHARMA LLC, priority 2018, dated 2024)
Note: time not given here.

Each compound was assayed against T1, KRAS G12C 1-169, his-tagged protein, GDP-loaded (Homo sapiens, UniProt P01116, G12C) (assay: Biochemical assay: covalent modification of KRAS G12C, analysed by mass spectrometry (RapidFire/TOF or Q-Exactive)). Settings: Modification activity, modification percentage from MS peak intensities.
T1 construct: KRAS G12C 1-169, his-tagged protein, GDP-loaded; His tag
Assay type: binding
How it was run: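 GDP-loaded His-tagged KRAS G12C 1-169 (2 μM or 0.5 μM in 20 mM Hepes, 150 mM NaCl, 1 mM MgCl2) reacted with compound at 32 μM or 8 μM final (2% DMSO) for a set time, then quenched with formic acid. Percent covalent modification from deconvoluted intact-protein MS peak intensities (RapidFire/TOF or LC-Q Exactive).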
`C=CC(=O)N1CC2(CCN(c3nc(OCCN4CCCC4=O)nc(-c4c(C)ccc5[nH]ncc45)c3C#N)C2)C1` [Compound I-20, 4-(2-acryloyl-2,6-diazaspiro[3.4]octan-6-yl)-6-(5-methyl-1H-indazol-4-yl)-2-(2-(2-oxopyrrolidin-1-yl)ethoxy)pyrimidine-5-carbonitrile] was tested, and the Binding % was “++ (++ indicates binding activity from 50 to 85%)”.
`C=CC(=O)N1CC2(CCN(c3nc(N4CCCC4=O)nc(-c4c(C)ccc5[nH]ncc45)c3C#N)C2)C1` [Compound I-23, 4-(2-acryloyl-2,6-diazaspiro[3.4]octan-6-yl)-6-(5-methyl-1H-indazol-4-yl)-2-(2-oxopyrrolidin-1-yl)pyrimidine-5-carbonitrile] was tested, and the Binding % was “++ (++ indicates binding activity from 50 to 85%)”.
`C=CC(=O)N1CC2(CCN(c3nc(OC[C@@H]4CCCN4C)nc(-c4c(C)ccc5cnn(C6CC6)c45)c3C#N)C2)C1` [Compound I-103, 4-(2-acryloyl-2,6-diazaspiro[3.4]octan-6-yl)-6-(1-cyclopropyl-6-methyl-1H-indazol-7-yl)-2-(((S)-1-methylpyrrolidin-2-yl)methoxy)pyrimidine-5-carbonitrile] was tested, and the Binding % was “+ (+ indicates binding activity greater than 0% and up to 50%)”.
For `C=CC(=O)N1CC2(CCN(c3nccc(-c4c(C)ccc5[nH]ncc45)c3C#N)C2)C1` [Compound I-267, 2-(2-acryloyl-2,6-diazaspiro[3.4]octan-6-yl)-4-(5-methyl-1H-indazol-4-yl)nicotinonitrile], the Binding % was “+ (+ indicates binding activity greater than 0% and up to 50%)”.
For `C=CC(=O)N1CC2(CCN(c3ncnc(-c4c(C)ccc5[nH]ncc45)c3C(=O)N(C)C)C2)C1` [Compound I-254, 4-(2-acryloyl-2,6-diazaspiro[3.4]octan-6-yl)-N,N-dimethyl-6-(5-methyl-1H-indazol-4-yl)pyrimidine-5-carboxamide], the Binding % was “+ (+ indicates binding activity greater than 0% and up to 50%)”.
With `C=CC(=O)N1CC2(CCN(c3cnc(Cc4ccccc4)c(-c4c(C)ccc5cnn(C)c45)c3C#N)C2)C1` [Compound I-224] the Binding % was “++ (++ indicates binding activity from 50 to 85%)”.
For `C=CC(=O)N1CC2(CCN(c3nc(OC[C@@H]4CCCN4C)nc(-c4cccc5c4OCCO5)c3C#N)C2)C1` [Compound I-26, (S)-4-(2-acryloyl-2,6-diazaspiro[3.4]octan-6-yl)-6-(2,3-dihydrobenzo[b][1,4]dioxin-5-yl)-2-((1-methylpyrrolidin-2-yl)methoxy)pyrimidine-5-carbonitrile], the Binding % was “+ (+ indicates binding activity greater than 0% and up to 50%)”.
For `C=CC(=O)N1CC2(CC(=O)N(c3nc(N4CCOCC4)nc(-c4c(O)cccc4F)c3C#N)C2)C1` [Compound I-177, 4-(2-acryloyl-7-oxo-2,6-diazaspiro[3.4]octan-6-yl)-6-(2-fluoro-6-hydroxyphenyl)-2-morpholinopyrimidine-5-carbonitrile], the Binding % was “+ (+ indicates binding activity greater than 0% and up to 50%)”.
In the case of `C=CC(=O)N1CC2(CCN(c3nc(N4CCN(C)CC4)nc(-c4c(C)ccc5[nH]ncc45)c3C#N)C2)C1` [Compound I-30, 4-(2-acryloyl-2,6-diazaspiro[3.4]octan-6-yl)-6-(5-methyl-1H-indazol-4-yl)-2-(4-methylpiperazin-1-yl)pyrimidine-5-carbonitrile], the Binding % was “+++ (+++ indicates binding activity greater than 85%)”.
`C=CC(=O)N1CC2(CCN(c3nc(OCCCN(C)C)cc(-c4c(C)ccc5[nH]ncc45)n3)C2)C1` [Compound I-146, 1-(6-(4-(3-(dimethylamino)pro-poxy)-6-(5-methyl-1H-indazol-4-yl)pyrimidin-2-yl)-2,6-diazaspiro[3.4]octan-2-yl)prop-2-en-1-one] was tested, and the Binding % was “+ (+ indicates binding activity greater than 0% and up to 50%)”.
